The results in this text go back to US11224234B2, “Functional chocolate” (IMMD SP. Z.O.O., priority 2016, dated 2022).

Molecules are shown by their SMILES.

This data set is described as follows: Pharmacokinetics of trans-Resveratrol in human serum, crossover clinical study. In kind it is in vivo. As to conditions: single ingestion. As to the method: This was a crossover clinical study on 6 volunteers of 35-65 years old, 3 women and 3 men. It was a multi-arm trial with one-week interval between each arm. Prior to every experiment volunteers were asked not to consume food, which may contain fruit, vegetable or grain polyphenols and tomato-based products. In the morning of the experiment volunteers were asked to abstain from any food and drink only water. The serum of the vein blood was analysed. […] Firstly, a sample was collected before ingesting of a product, then every hour for 4 hours after ingestion. To assess the pharmacokinetics (PK) of t-RSV of our dark and milk chocolate with embedded bilberry and aronia extracts, we undertook a crossover clinical study with the same group of volunteers. On top of these we added into this crossover study a few more groups with Nutella spread where chocolate is only a small ingredient. The design of the study and the sample collection was the same as in the glucose postprandial study described above.

For `Oc1ccc(/C=C/c2cc(O)cc(O)c2)cc1` [t-RSV capsule, trans-Resveratrol], the “t-RSV AUC 0-4 hours” value was in the range of 105 to 380 ng/mL and the “t-RSV Max” value fell in the range of 100 to 207 ng/mL.
